“Also recorded” adds a separate entry of the source.
Columns and labels:
bullfrog gastric mucosa [1] = type: cell-based
Protocol: FIG. 1B Electrophysiology in the bullfrog gastric mucosa. […] Removal of NH4Cl was followed by a complete recovery of R within 30 min. Data were obtained from 21 experiments and are expressed as the mean±SEM.
FIG. 1C Electrophysiology in the bullfrog gastric mucosa. […] Removal of NH4Cl was followed by a complete recovery of PD within 30 min. Data were obtained from 21 experiments and are expressed as the mean±SEM.

rabbit gastric glands = assay: Intracellular ATP in rabbit gastric glands; type: cell-based
bullfrog gastric mucosa [2] = conditions: cited from earlier work
bullfrog gastric mucosa [3] = assay: Acid secretion of frog (bullfrog) gastric mucosa stimulated with histamine/carbachol or forskolin; type: cell-based
[4] = system: cimetidine-inhibited tissues; assay: Resistance (R) of cimetidine-inhibited gastric mucosa tissues; type: cell-based, bullfrog; conditions: pH 7.2
Protocol: Tissues were incubated with cimetidine until acid secretion reached 0 μEq/hr cm^2; experiments were performed only if the R of paired tissues was different by 10% or less.

[5] = system: Ca^2+-dependent inwardly rectifying K^+ channel; conditions: HeLa cells (Diaz et al.); cited from earlier work

With Cl.N [NH4Cl, ammonium chloride] the “PD after NH4Cl” value (bullfrog gastric mucosa [1]) was 28.48±1.47 mvolts, the “PD after NH4Cl washed out” value (bullfrog gastric mucosa [1]) was 7.95±2.65 mvolts and the “R after NH4Cl” value (bullfrog gastric mucosa [1]) was 306.5±16.11 Ohm cm^2. For the same molecule, the “R after NH4Cl washed out” value (bullfrog gastric mucosa [1]) was 159.0±16.83 Ohm cm^2, the “effect on potential difference (PD) of stimulated tissues (in words)” value (bullfrog gastric mucosa [1]) was “increase in potential difference (PD)” and the “effect on resistance (R) of stimulated tissues (in words)” value (bullfrog gastric mucosa [1]) was “increase in resistance (R)”. For the same molecule, the “effect on concentration of ATP (in words)” value (rabbit gastric glands) was “statistically significant reduction in the concentration of ATP”, the “intracellular ATP” value (rabbit gastric glands) was 3.76±0.12 μM/mg protein and the “intracellular ATP, % of control” value (rabbit gastric glands) was 83 % of control. For the same molecule, the “effect of luminal NH4Cl on tissue resistance (Yanaka et al.)” value (bullfrog gastric mucosa [2]) was “significant decrement in tissue resistance”, the “effect of basolateral NH4Cl on acid secretion (Yanaka et al.)” value (bullfrog gastric mucosa [2]; pH 7.2) was “rapidly and completely inhibits acid secretion” and the “Rate of decline in acid secretion” value (bullfrog gastric mucosa [3]) was −0.2881 (μEq/h · cm^2)/min. The “acid secretion after NH4Cl washed from the nutrient bath” value (bullfrog gastric mucosa [3]) was 5.51±0.16 μEq/hr cm^2, the “effect of 1-9 mM NH4Cl on acid secretion” value (bullfrog gastric mucosa [3]) was “inhibition of acid secretion” and the “least (minimum) concentration required for complete inhibition of acid secretion within 30 min” value (bullfrog gastric mucosa [3]) was 10 mM. The “rate of decline of acid secretion relative to cimetidine” value (bullfrog gastric mucosa [3]) was 3.6 times faster, the “rate of decline of acid secretion relative to omeprazole” value (bullfrog gastric mucosa [3]) was 3.2 times faster and the “rate of inhibition of acid secretion relative to cimetidine or omeprazole” value (bullfrog gastric mucosa [3]) was “more than 3 times faster”. For the same molecule, the “time to complete inhibition of stimulated acid secretion” value (bullfrog gastric mucosa [3]) was at most 30 min, the “rate of acid secretion after NH4Cl” value (bullfrog gastric mucosa [3]; pH 7.2) was 0±0 μEq/hr cm^2 and the “effect of NH4Cl on R of cimetidine-inhibited tissues (in words)” value [4] was “does not cause an increase in R; also recorded: no change in R”.
In the case of N [NH4^+], the “inhibition of Ca2+-dependent inwardly rectifying K+ channel activity” value [5] is given as “potent inhibitor”.

Reference: patent US20040224880A1, “Regulation of gastric acid secretion by inwardly rectifying k+ channels” (Beth Israel Deaconess Medical Center, Inc., priority 2001, published 2004)
